Tests used:
[1] = Binding affinity against kappa opioid receptor from calf frontal cortex.
[2] = Binding affinity against delta opioid receptor from calf frontal cortex.
[3] = target: Mu-type opioid receptor (Bos taurus, UniProt P79350); test: ChEBML_136067
Text: Binding affinity against mu opioid receptor from calf frontal cortex.

Mu-type opioid receptor, sequence (P79350 whole entry): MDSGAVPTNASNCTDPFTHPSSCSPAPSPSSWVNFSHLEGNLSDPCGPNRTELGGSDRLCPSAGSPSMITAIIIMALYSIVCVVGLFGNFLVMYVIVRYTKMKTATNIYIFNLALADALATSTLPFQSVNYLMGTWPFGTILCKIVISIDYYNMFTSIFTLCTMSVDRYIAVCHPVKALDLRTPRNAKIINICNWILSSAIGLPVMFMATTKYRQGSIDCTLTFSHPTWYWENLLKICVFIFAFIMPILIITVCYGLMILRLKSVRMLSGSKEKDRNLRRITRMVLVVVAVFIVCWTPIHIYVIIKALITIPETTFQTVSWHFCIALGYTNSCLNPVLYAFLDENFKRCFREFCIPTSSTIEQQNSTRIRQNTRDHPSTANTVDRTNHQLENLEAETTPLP

| SMILES | IC50 [1] [µM] | IC50 [2] [µM] | IC50 [3] [µM] |
| --- | --- | --- | --- |
| C[C@@]12Oc3c(O)ccc4c3C13CCN(CC1CC1)C(C4)[C@]3(NC(=O)/C=C/c1ccc([N+](=O)[O-])cc1)CCC2=O (stereo partly drawn) [1N-[4-cyclopropylmethyl-10-hydroxy-13-methyl-14-oxo-(13R,17S)-12-oxa-4-azapentacyclo[9.6.1.01,13.05,17.07,18]octadeca-7(18),8,10-trien-17-yl]-4-(4-nitrophenyl)-(Z)-2-butenamide] | 0.126 | 0.011 |  |
| CN1CC[C@]23c4c5ccc(O)c4O[C@H]2C(=O)CC[C@@]3(NC(=O)/C=C/c2ccc([N+](=O)[O-])cc2)[C@H]1C5 | 0.0066 | 0.0035 |  |
| C[C@@]12Oc3c(O)ccc4c3C13CCN(CC1CC1)C(C4)[C@]3(NC(=O)CCc1ccc([N+](=O)[O-])cc1)CCC2=O (stereo partly drawn) [1N-[4-cyclopropylmethyl-10-hydroxy-13-methyl-14-oxo-(13R,17S)-12-oxa-4-azapentacyclo[9.6.1.01,13.05,17.07,18]octadeca-7(18),8,10-trien-17-yl]-3-(4-nitrophenyl)propanamide] | 0.162 |  |  |
| COc1ccc2c3c1O[C@H]1C(=O)C=C[C@@]4(NC(=O)C=Cc5ccc([N+](=O)[O-])cc5)C(C2)N(C)CCC314 (stereo partly drawn) [1N-[10-methoxy-4-methyl-14-oxo-(13R,17S)-12-oxa-4-azapentacyclo[9.6.1.01,13.05,17.07,18]octadeca-7(18),8,10,15-tetraen-17-yl]-4-(4-nitrophenyl)-(Z)-2-butenamide] | 0.068 | 0.046 |  |
| CN1CCC23c4c5ccc(O)c4O[C@@]2(C)C(=O)CC[C@@]3(NC(=O)/C=C/c2ccc([N+](=O)[O-])cc2)C1C5 (stereo partly drawn) [1N-[10-hydroxy-4,13-dimethyl-14-oxo-(13R,17S)-12-oxa-4-azapentacyclo[9.6.1.01,13.05,17.07,18]octadeca-7(18),8,10-trien-17-yl]-4-(4-nitrophenyl)-(Z)-2-butenamide] | 0.116 | 0.051 |  |
| O=C(/C=C/c1ccc([N+](=O)[O-])cc1)N[C@@]12CCC(=O)[C@@H]3Oc4c(O)ccc5c4[C@@]31CCN(CC1CC1)[C@@H]2C5 [1N-[4-cyclopropylmethyl-10-hydroxy-14-oxo-(13R,17S)-12-oxa-4-azapentacyclo[9.6.1.01,13.05,17.07,18]octadeca-7(18),8,10-trien-17-yl]-4-(4-nitrophenyl)-(Z)-2-butenamide] | 0.012 | 0.021 |  |
| O=C(C=Cc1ccc([N+](=O)[O-])cc1)N[C@@]12C=CC(=O)[C@@H]3Oc4c(O)ccc5c4C31CCN(CC1CC1)C2C5 (stereo partly drawn) [1N-[4-cyclopropylmethyl-10-hydroxy-14-oxo-(13R,17S)-12-oxa-4-azapentacyclo[9.6.1.01,13.05,17.07,18]octadeca-7(18),8,10,15-tetraen-17-yl]-4-(4-nitrophenyl)-(Z)-2-butenamide] | 0.011 | 0.106 |  |
| COc1ccc2c3c1O[C@H]1C(=O)C=C[C@@]4(NC(=O)C=Cc5ccc([N+](=O)[O-])cc5)C(C2)N(CC2CC2)CCC314 (stereo partly drawn) [1N-[4-cyclopropylmethyl-10-methoxy-14-oxo-(13R,17S)-12-oxa-4-azapentacyclo[9.6.1.01,13.05,17.07,18]octadeca-7(18),8,10,15-tetraen-17-yl]-4-(4-nitrophenyl)-(Z)-2-butenamide] | 0.005 | 0.054 | 0.0015 |

From BindingDB's records for doi:10.1021/jm00073a015 (Institute, 1993)
